{
  "source": "BindingDB's records for doi:10.1021/jm0205752",
  "about": "(University of Queensland, 2004)",
  "molecular_target": "T1, Alpha-2A adrenergic receptor [16-465] (Rattus norvegicus, UniProt P22909)",
  "T1 construct": "16-465",
  "T1 sequence (P22909 whole entry)": "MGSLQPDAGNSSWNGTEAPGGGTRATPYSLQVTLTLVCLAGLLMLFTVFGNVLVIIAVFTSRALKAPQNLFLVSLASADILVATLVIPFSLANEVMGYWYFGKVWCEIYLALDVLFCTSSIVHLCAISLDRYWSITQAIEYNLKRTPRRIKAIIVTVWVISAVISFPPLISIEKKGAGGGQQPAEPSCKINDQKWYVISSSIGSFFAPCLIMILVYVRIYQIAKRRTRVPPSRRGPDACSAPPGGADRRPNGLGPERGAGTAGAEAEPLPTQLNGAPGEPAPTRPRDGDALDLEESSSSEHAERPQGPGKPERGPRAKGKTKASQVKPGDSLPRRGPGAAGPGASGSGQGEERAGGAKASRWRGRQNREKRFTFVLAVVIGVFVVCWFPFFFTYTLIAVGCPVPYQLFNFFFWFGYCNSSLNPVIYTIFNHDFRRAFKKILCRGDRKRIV",
  "test": "alpha-Adrenoceptor Radioligand Binding Assay",
  "settings": "pH 7.7; 25 °C",
  "method": "The binding affinity of compound was evaluated using [3H] Clonidine as ligand in competition binding experiments. Nonspecific binding was determined as the concentration of ligand bound in the presence of 2 uM phentolamine. Ki values were determined by the equation: Ki = IC50/(1 + [clonidine]/KD).",
  "data": [
    {"smiles": "NS(=O)(=O)c1ccc2c(c1)CNCC2", "note": "[1,2,3,4-tetrahydroisoquinoline-7-sulfonamide]", "values": [
      {"measurement": "Ki", "result": 100, "unit": "µM"}
    ]}
  ]
}
